According to US20080306131A1, “Progesterone receptor modulator and uses thereof” (Wyeth, priority 2007, published 2008):
Read-outs that look alike come from different tables or passages of the source.

Target: T1, progesterone receptors (PR) (Homo sapiens, UniProt P06401)
T1 sequence (P06401 1-933): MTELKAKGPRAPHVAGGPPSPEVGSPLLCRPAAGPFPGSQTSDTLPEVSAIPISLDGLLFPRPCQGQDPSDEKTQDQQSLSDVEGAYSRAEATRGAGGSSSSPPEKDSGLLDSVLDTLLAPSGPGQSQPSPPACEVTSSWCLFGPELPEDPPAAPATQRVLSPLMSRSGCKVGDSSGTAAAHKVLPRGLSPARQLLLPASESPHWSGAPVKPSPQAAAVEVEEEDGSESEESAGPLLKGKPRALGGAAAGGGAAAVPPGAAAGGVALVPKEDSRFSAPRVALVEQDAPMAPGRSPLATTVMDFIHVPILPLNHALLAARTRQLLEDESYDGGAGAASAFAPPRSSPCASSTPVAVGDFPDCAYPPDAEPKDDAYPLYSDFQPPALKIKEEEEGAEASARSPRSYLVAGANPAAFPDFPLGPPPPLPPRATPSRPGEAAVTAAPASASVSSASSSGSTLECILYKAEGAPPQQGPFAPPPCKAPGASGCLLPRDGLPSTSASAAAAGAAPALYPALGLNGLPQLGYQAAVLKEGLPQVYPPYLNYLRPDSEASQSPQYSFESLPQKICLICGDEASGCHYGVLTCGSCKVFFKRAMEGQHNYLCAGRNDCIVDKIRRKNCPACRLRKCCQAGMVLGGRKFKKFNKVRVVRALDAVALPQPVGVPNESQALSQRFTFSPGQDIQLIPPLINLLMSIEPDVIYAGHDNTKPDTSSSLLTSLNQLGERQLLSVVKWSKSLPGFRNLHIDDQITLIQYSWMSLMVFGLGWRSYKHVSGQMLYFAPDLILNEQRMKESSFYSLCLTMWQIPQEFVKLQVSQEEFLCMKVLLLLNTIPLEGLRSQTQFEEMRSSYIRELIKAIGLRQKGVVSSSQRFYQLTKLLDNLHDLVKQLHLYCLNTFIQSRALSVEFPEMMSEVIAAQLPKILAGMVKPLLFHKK
Assay: PRE luciferase reporter assay and Quantigene branched DNA assay (TF, PPL) for progestin activity in T47D cells
Type: cell-based
Conditions: read-out: efficacies (percentage of the maximum P4 response)
Method: Progestin activity was measured using a common luciferase reporter system in cells expressing endogenous progesterone receptors (PR). T47D breast cancer cells were plated at 50,000 cells/well in 96 well plates in DMEM/F-12 supplemented with penicillin/streptomycin, Glutamax and 5% FBS (Gibco). Cells were infected with a 1:1000 dilution of an adenovirus vector expressing luciferase under the control of three copies of a consensus progesterone receptor regulatory element (PRE) located in the promoter region. Following a two-hour post-infection recovery, cells were treated for 20 hours with progesterone (P4) or test compounds. Luciferase reporter activity was quantified using the Luciferase Assay System (Promega) and a Victor2 luminometer (Perkin Elmer).
T47D cells were plated as in the PRE assay and treated with compound for 15 hours. Expression of tissue factor (TF), a PR-β isoform regulated gene, or periplakin (PPL), a PR-A regulated gene, was measured by the Quantigene branched DNA assay (Genospectra) using the Victor2 luminometer following the manufacturer's recommended protocol.
EC50 values were determined using the dose response nonlinear fit model from the SAS statistics package (SAS Institute Inc). Efficacies were calculated as a percentage of the maximum P4 response.

| Emax (T47D breast cancer cells, percentage of maximum progesterone (P4) response, the text does not say which assay (PRE luciferase, TF, PPL) each value comes from) | Compound | Emax (T47D) |
| --- | --- | --- |
|  | CC1(C)C(=O)C=CC2(C)C3(C)c4[nH]c5ccccc5c4CC3CCC12O (centres unmarked) [4a-hydroxy-4,4,12b,12c-tetramethyl-4a,5,6,6a,7,12,12b,12c-octahydrobenzo[6,7]indeno[1,2-b]indol-3(4H)-one] | < 1% |
| < 1% | CO[C@H]1[C@H](O)[C@@H](O)[C@@H](Oc2ccc3c4c([nH]c3c2)[C@]2(C)[C@H](CC[C@@H]3C(C)(C)C(=O)C=C[C@]32C)C4)O[C@@H]1CO [(4aS,6aR,12bR,12cR)-4,4,12b,12c-tetramethyl-3-oxo-3,4,4a,5,6,6a,7,12,12b,12c-decahydrobenzo[6,7]indeno[1,2-b]indol-10-yl 4-O-methyl-α-D-glucopyranoside] |  |
